Structures can show the parent of a compound that is named as a salt.
Columns and labels:
[1] = test system: reserpine-inducd hypothermia in male mice (NMRI strain); test: Inhibition of reserpine-induced hypothermia in mice (antidepressive action); assay type: in vivo; settings: oral; for ED50: Mus musculus, 60 minutes before reserpine 2.15 mg/kg s.c., dose inhibiting reserpine-induced hypothermia by 50%, read-out: Antidepressive action ED 50; for effectiveness higher than that of imipramine, factor: ED 50 relative to imipramine
Protocol: The antidepressive activity of the substances according to the invention was studied using the following model:
Antidepressant substances inhibit this hypothermic effect, the degree of inhibition depending on the dose. The test substances were administered orally 60 minutes before the reserpine was administered.
The dose which inhibits reserpine-inducd hypothermia by 50%, ie. ED 50, is determined from the linear regression between log dose (mg/kg) and the relative decrease in the hypothermic effect.

[2] = test system: tonic spasms induced by electroshock in female mice (NMRI strain); test: Inhibition of electroshock-induced tonic spasms in mice (anticonvulsive action); assay type: in vivo; settings: oral; for ED50: Mus musculus, 1 h, 60 minutes before electroshock, dose inhibiting tonic spasms in 50% of the animals, n/dose=8, read-out: Anticonvulsive action ED 50
Protocol: The anticonvulsive action was measured on female mice (NMRI strain) having a weight of 22-26 g. Tonic spasms were induced by electroshock via ear electrodes. Stimulus data: a series of square-wave pulses 4.64 ms in duration and 14.7 mA in amplitude; frequency 100 Hz; duration of series 0.2 sec.
The electroshock was administered 60 minutes after the oral administration of the test compounds, and the appearance of tonic spasms was counted. n/dose=8. The ratios between the effectiveness (% protected animals) and log dose were calculated by probit analysis. ED 50 is the dose which inhibits the tonic spsms in 50% of the animals.

Row | Compound | ED50 [1] [mg/kg] | ED50 [2] [mg/kg] | anticonvulsive effectiveness compared with phenytoin (in words) [2] | effectiveness higher than that of imipramine, factor [1]
1 | CN1CC[C@H]2c3ccccc3[C@H](c3ccccc3)C[C@@H]21 (relative stereo) [Example 2, (±)-3aR(S),5R(S),9bR(S)-3-Methyl-5-phenyl-1,2,3a,4,5,9b-hexahydro-3H-benz[e]indole] | 5.01 | – | – | –
2 | CCCN1CC[C@@H]2c3ccccc3[C@H](c3ccccc3)C[C@@H]21 (relative stereo) [Example 7, (±)-3aS(R),5S(R),9bR(S)-3-n-propyl-5-phenyl-1,2,3a,4,5,9b-hexahydro-3H-benz[e]indole hydrochloride] | 0.26 | 11.9 | – | –
3 | CN1CC[C@@H]2c3ccccc3[C@H](c3ccccc3)C[C@@H]21 (relative stereo) [Example 1, (±)-3aS(R),5S(R),9bR(S)-3-Methyl-5-phenyl-1,2,3a,4,5,9b-hexahydro-3H -benz[e]indole hydrochloride] | 0.082 | 1.1 | equalled or substantially exceeded | about 45
4 | CN1CC[C@@H]2c3ccccc3[C@H](c3ccccc3)C[C@@H]21 [Example 4, (+)-3aS,5S,9bR-3-Methyl-5-phenyl-1,2,3a,4,5,9b-hexahydro-3H-benzo[e]indole] | 0.087 | ~46.4 | – | about 45
5 | CCN1CC[C@@H]2c3ccccc3[C@H](c3ccccc3)C[C@@H]21 (relative stereo) [Example 5, (±)-3aS(R),5S(R),9bR(S)-3-ethyl-5-phenyl-1,2,3a,4,5,9b-hexahydro-3H-benz[e]indole hydrochloride] | 0.14 | ~100 | – | –
6 | O=C1NC(=O)C(c2ccccc2)(c2ccccc2)N1 [phenytoin, reference compound] | – | 14.3 | – | –
7 | CN(C)CCCN1c2ccccc2CCc2ccccc21 [imipramine, reference compound] | 3.82 | – | – | –
8 | CCN1CC[C@H]2c3ccccc3[C@H](c3ccccc3)C[C@@H]21 (relative stereo) [Example 6, (±)-3aR(S),5R(S),9bR(S)-3-Ethyl-5-phenyl-1,2,3a,4,5,9b-hexahydro-3H-benz[e]indole hydrochloride] | 1.61 | 8.81 | equalled or substantially exceeded | –

Reference: patent US4877807A, “5-phenyl-1,2,3a,4,5,9b-hexahydro-3H-benz(e)indotes preparation and use thereof as drugs” (BASF Aktiengesellschaft, priority 1987, dated 1989)
